Assay results: US20150218212A1, “FLUORINATED EPOXYKETONE-BASED TETRAPEPTIDE COMPOUNDS AND USES THEREOF AS PROTEASOME INHIBITORS” (FLUORINOV PHARMA INC., priority 2012, published 2015)

Columns and labels:
Format in all cases: cell-based, human
M14 = assay: NCI screening panel, M14 (Melanoma)
Method in brief: (§1)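 SRB protein stain, A515. 48 h drug exposure, 37 °C, 5% CO2; 5 conc. (10-fold or ½ log steps); TCA fixation (10% final). Tz plates fixed when drug added. GI50 = 50% reduction in net protein gain vs control; TGI at Ti=Tz; LC50 = 50% loss vs Tz.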

HT29 = assay: NCI screening panel, HT29 (Colon Cancer)
Method in brief: as §1

SN12C = assay: NCI screening panel, SN12C (Renal Cancer)
Method in brief: as §1

OVCAR-5 = assay: NCI screening panel, OVCAR-5 (Ovarian Cancer)
Method in brief: as §1

HS 578T = assay: NCI screening panel, HS 578T (Breast Cancer)
Method in brief: as §1

RPMI-8226 = assay: NCI screening panel, RPMI-8226 (Leukemia)
Method in brief: (§2)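 Steps: time-zero plates fixed with TCA 24 h after seeding; test plates given five drug levels and incubated 48 h at 37 °C; fixation with cold TCA, SRB staining, bound dye solubilised in 10 mM trizma base, read at 515 nm. GI50, TGI and LC50 computed from Tz, control and test absorbances.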

MCF7 = assay: NCI screening panel, MCF7 (Breast Cancer)
Method in brief: as §1

MOLT-4 = assay: NCI screening panel, MOLT-4 (Leukemia)
Method in brief: as §2

UO-31 = assay: NCI screening panel, UO-31 (Renal Cancer)
Method in brief: as §1

NCI-H23 = assay: NCI screening panel, NCI-H23 (Non-Small Cell Lung Cancer)
Method in brief: as §1

KM12 = assay: NCI screening panel, KM12 (Colon Cancer)
Method in brief: as §1

SNB-75 = assay: NCI screening panel, SNB-75 (CNS Cancer)
Method in brief: as §1

TK-10 = assay: NCI screening panel, TK-10 (Renal Cancer)
Method in brief: as §1

NCI-H322M = assay: NCI screening panel, NCI-H322M (Non-Small Cell Lung Cancer)
Method in brief: as §1

OVCAR-4 = assay: NCI screening panel, OVCAR-4 (Ovarian Cancer)
Method in brief: as §1

SF-539 = assay: NCI screening panel, SF-539 (CNS Cancer)
Method in brief: as §1

A498 = assay: NCI screening panel, A498 (Renal Cancer)
Method in brief: as §1

## CC(C)C[C@H](NC(=O)[C@H](COC(F)F)NC(=O)CN1CCOCC1)C(=O)N[C@@H](Cc1ccccc1)C(=O)N[C@@H](Cc1ccccc1)C(=O)[C@@]1(C)CO1 [Example 3, (2S)-N-[(1S)-1-benzyl-2-[[(1S)-1-benzyl-2-[(2R)-2-methyloxiran-2-yl]-2-oxo-ethyl]amino]-2-oxo-ethyl]-2-[[(2S)-3-(difluoromethoxy)-2-[(2-morpholinoacetyl)-amino]propanoyl]amino]-4-methyl-pentan-amide]
M14
  Log10GI50: −7.69
  Log10LC50: >−4.00
  Log10TGI50: −6.54
HT29
  Log10GI50: <−8.00
  Log10LC50: −4.44
  Log10TGI50: −6.25
SN12C
  Log10GI50: −7.68
  Log10LC50: −6.24
  Log10TGI50: −6.85
OVCAR-5
  Log10GI50: −7.42
  Log10LC50: >−4.00
  Log10TGI50: −5.86
HS 578T
  Log10GI50: <−8.00
  Log10LC50: >−4.00
  Log10TGI50: −7.01
RPMI-8226
  Log10GI50: <−8.00
  Log10LC50: >−4.00
  Log10TGI50: −7.48
MCF7
  Log10GI50: <−8.00
  Log10LC50: >−4.00
  Log10TGI50: −4.65
MOLT-4
  Log10GI50: <−8.00
  Log10TGI50: >−4.00
UO-31
  Log10GI50: −6.65
  Log10LC50: −5.08
  Log10TGI50: −5.91
NCI-H23
  Log10GI50: <−8.00
  Log10LC50: −4.33
  Log10TGI50: −6.69
KM12
  Log10GI50: <−8.00
  Log10LC50: −7.16
  Log10TGI50: −7.74
SNB-75
  Log10GI50: −7.66
  Log10LC50: −4.61
  Log10TGI50: −7.11
TK-10
  Log10GI50: −7.55
  Log10LC50: >−4.00
  Log10TGI50: −5.91
NCI-H322M
  Log10GI50: −7.12
  Log10LC50: −5.14
  Log10TGI50: −6.44
OVCAR-4
  Log10GI50: −7.88
  Log10TGI50: >−4.00
SF-539
  Log10GI50: <−8.00
  Log10LC50: −4.07
  Log10TGI50: −7.42
A498
  Log10GI50: −7.97
  Log10LC50: −6.34
  Log10TGI50: −7.26
